Laboratory results as given in PMC12304293, “Combatting virulent gut bacteria by inhibiting the biosynthesis of a two-component lanthipeptide toxin” (Nature Communications, 2025).
Non-standard residues stand in square brackets, D forms with d. Residues, ends and D or L forms follow the SMILES beside them. *: point of attachment. boroGlu = O=C(O)CC[C@H](N*)B(O)O; Gly(cPr) = N[C@H](C(=O)O)C1CC1

Legend:
His6-CylA-27-412 [1] = target: T1, His6-CylA-27-412 (Enterococcus faecalis, UniProt A0A2P6AWB8); experiment: FRET assay, initial rates of FRET peptide cleavage; assay type: biochemical; details: 762, 254, or 85 pM of inhibitor (substoichiometric; enzyme 20 nM)
T1 sequence (A0A2P6AWB8 27-412): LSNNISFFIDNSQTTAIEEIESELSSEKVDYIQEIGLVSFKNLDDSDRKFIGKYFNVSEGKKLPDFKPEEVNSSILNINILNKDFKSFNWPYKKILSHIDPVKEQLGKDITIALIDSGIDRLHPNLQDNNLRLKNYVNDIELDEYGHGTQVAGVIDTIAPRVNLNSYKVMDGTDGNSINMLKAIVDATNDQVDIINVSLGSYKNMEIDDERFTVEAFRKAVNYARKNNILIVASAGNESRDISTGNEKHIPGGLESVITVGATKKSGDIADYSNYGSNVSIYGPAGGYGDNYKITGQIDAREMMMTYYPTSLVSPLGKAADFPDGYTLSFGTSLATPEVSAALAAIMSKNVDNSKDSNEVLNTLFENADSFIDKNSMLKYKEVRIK
Method: A FRET assay was developed to directly detect the inhibition of His6-CylA-27-412 activity by inhibitor 9. Fmoc SPPS was used to prepare a FRET labeled substrate. The substrate recognition sequence and a portion of the N-terminus of unmodified CylLS were embedded in between N-terminal Asp(EDANS) and C-terminal Lys(DABCYL) residues (Fig. 5A).
A Structure of the FRET substrate and its cleavage by CylA. Samples of FRET substrate (44 µM) in PBS (pH = 7.4) before and after treatment with His6-CylA-27-412 (200 nM) overnight at 37 °C. […] Points represent the mean. Error bars represent the standard of deviation and are centered at the mean. C The relationship between relative enzyme activity (vi/vo) and concentration of 9. […] The colored line represents the calculated fit function. Points represent the mean and error bars represent the standard of deviation centered at the mean. […] For (D) and (E) absorbance at 220 nm was monitored. […] Statistical significance was calculated using a one sample and one-sided t test. *P < 0.05, **P < 0.01. […]
The emission intensity of EDANS was measured over a 4 h period using a BioTek Synergy H4 plate reader. The slope of the linear portion of the emission intensity as a function of time curve was calculated (vi), divided by the slope of an uninhibited control (vo), and the ratio (vi/vo) was plotted as function of total inhibitor concentration.

His6-CylA-27-412 [2] = target: T1, His6-CylA-27-412; experiment: Analytical size exclusion chromatography (pro-domain release); details: increasing inhibitor:CylA ratio
Method: To gain more insight into this phenomenon, His6-CylA-27-412 that had undergone complete autolytic cleavage as determined by SDS-PAGE and that had been purified by size exclusion chromatography (SEC), was analyzed by analytical SEC (aSEC) in the presence of inhibitor 9. […] This assignment was supported by SDS-PAGE analysis of the eluted fractions (Supplementary Fig. 8). […] The SEC retention time data is inconsistent with CylA forming higher order oligomers, ruling out a DegP-like activation mechanism.
Samples of His6-CylA-27-412 prepared as described in ‘Expression and purification of His6-CylA-27-412’ were diluted to a concentration of 50 μM and injected (20 μL injection volume) into an Agilent 1260 infinity analytical high-performance liquid chromatography system equipped with a Biozen™ 1.8 μm, 300 × 4.6 mm LC column pre-equilibriated with aSEC buffer (100 mM NaHPO4, 200 mM NaCl, pH = 7.4). Absorbance at 220 nm was monitored. A flow rate of 0.25 mL/min was used for all experiments. Retention time was correlated to protein size using a Gel Filtration Standard (Biorad) and samples of carbonic anhydrase isolated from bovine erythrocytes (Sigma Aldrich) and albumin isolated from bovine serum (Sigma Aldrich).

What does the source list for `CC(=O)NCC(=O)N[C@@H](CC(=O)O)C(=O)N[C@H](C(=O)N[C@@H](CCC(N)=O)C(=O)N[C@@H](C)C(=O)N[C@@H](CCC(=O)O)B(O)O)C1CC1` [Compound 9] (Ac-GD[Gly(cPr)]QA-boroGlu)?
rate of FRET peptide cleavage (His6-CylA-27-412 [1]): increased significantly; conversion of CylA-96-412°His6-27-95 to the 12.1 min peak (pro-domain release), aSEC (His6-CylA-27-412 [2]): transition appeared complete once a stoichiometric equivalent of inhibitor was added
